Results from patent US20140262319A1, “ENVIRONMENTALLY FRIENDLY PERMANENT QUATERNARIES OF POLYAMINES AND THEIR USE AS CLAY STABILIZERS AND METHODS FOR MAKING AND USING SAME” (CLEARWATER INTERNATIONAL, LLC, priority 2013, published 2014).

Tested on: Fathead Minnow (pimephales promelas)
Assay: Acute toxicity survival test
Assay type: in vivo
Settings: Flathead Minnows
Protocol: As a consequence, the “definitive” test gave a more precise LC50 value. LC50 was determined using a log-normal transformation coupled with linear regression between the bracketing no observed effect concentration (NOEC) and lowest observed effect concentration (LOEC). Both the range finding and definitive tests were run on Example 4 and Example 5. Only the ranging finding test was run for TMAC and Example 3.

Compound | toxicity to minnows compared with TMAC
OCC[N+](CCO)(CCO)Cc1ccccc1.[Cl-] [Example 4] | much less toxic than TMAC
CCOS(=O)(=O)[O-].CC[N+](CCO)(CCO)CCO [Example 5] | much less toxic than TMAC
